Assay: Octopirox degradation under cool white light (LCMS / UPLC-UV)
Format: physicochemical
Details: 24 hours
Procedure: The cool white light (CWL) irradiation was carried out in an X-Rite (Macbeth) Spectra Light III chamber. CWL mode was chosen which provides stable irradiation mimicking the indoor light. The intensity of light was fixed which estimated at 6 μw/cm2 for UVA and 1.5 μw/cm^2 for UVB. The chamber temperature was equal to the room temperature (20±2° C.). The sample was placed in a line close to the center of the chamber. After 24 hours, the sample was analyzed by LCMS (Water UPLC coupled with Quatro Micro MS), by quantitatively measured using UPLC-UV analysis following DPS derivatization.
The separation was performed by a UPLC BEH C18 column and the mobile phase was acetonitrile/water (60/40, 0.1% formic acid) in isocratic elution. Electrospray ionization in positive mode was applied for MS scan.

- quantity of Octopirox® after cool white light (cool white light (indoor light; 6 μw/cm2 UVA, 1.5 μw/cm^2 UVB), 20±2° C.): reduced
- compound of formula 1 in the degradation product (cool white light, LCMS): no compound of formula 1 can be detected
SMILES: Cc1cc(CC(C)CC(C)(C)C)n(O)c(=O)c1.NCCO (centres unmarked) [Octopirox®, Piroctone olamine]

— patent US11826453B2, “Hair care composition comprising piroctone olamine” (Conopco, Inc., priority 2019, dated 2023)
